Experiments:
[1] = tested on: OCI-Ly7; assay: Combination study, ATPLite 72 h, dose matrix (Synergy Score, CI50)
Method: Cells are thawed from a liquid nitrogen preserved state. Once cells have been expanded and divide at their expected doubling times, screening begins. Cells are seeded in growth media in either black 1536-well or 384-well tissue culture treated plates. Cells are then equilibrated in assay plates via centrifugation and placed in incubators attached to the Dosing Modules at 37° C. for 24 hours before treatment. […] These Tzero (To) plates are read using ultra-sensitive luminescence on Envision plate readers (Perkin Elmer). Treated assay plates are incubated with compound for 72 hours. After 72 hours, plates are developed for endpoint analysis using ATPLite. All data points are collected via automated processes, quality controlled and analyzed using Zalicus software.
The measure of effect in the experiment can be the inhibition of cellular response relative to the untreated level (vehicle alone). […] The inhibition ranges from 0% at the untreated level to 100% when T=0. Inhibition levels are negative for agents that actually increase levels.
Growth Inhibition (GI) is used as a measure of cell viability. […] A GI reading of 100% represents complete growth inhibition—T72 compound-treated and T0 vehicle signals are matched. […] A GI reading of 200% represents complete death of all cells in the culture well. Compounds reaching an activity plateau of GI 200% are considered cytotoxic. GI is calculated by applying the following test and equation:
Combination analysis data were collected in a 6×6 dose matrix. Synergy is calculated by comparing a combination's response to those of its single compound, against the drug-with-itself dose-additive reference model. Deviations from dose additivity may be assessed visually on an isobologram or numerically with a Combination Index (CI). […] Additive effect is CI=1.0. […] Antagonistic effect is CI>1.0.
To measure combination effects in excess of Loewe additivity, a scalar measure to characterize the strength of synergistic interaction termed the Synergy Score is devised. The Synergy Score is calculated as:
The fractional inhibition for each component agent and combination point in the matrix is calculated relative to the median of all vehicle-treated control wells. The Synergy Score equation integrates the experimentally-observed activity volume at each point in the matrix in excess of a model surface numerically derived from the activity of the component agents using the Loewe model for additivity. Additional terms in the Synergy Score equation (above) are used to normalize for various dilution factors used for individual agents and to allow for comparison of synergy scores across an entire experiment. The inclusion of positive inhibition gating or an Idata multiplier removes noise near the zero effect level, and biases results for synergistic interactions at that occur at high activity levels.
Loewe Volume (Loewe Vol) is used to assess the overall magnitude of the combination interaction in excess of the Loewe additivity model. Loewe Volume is particularly useful when distinguishing synergistic increases in a phenotypic activity (positive Loewe Volume) versus synergistic antagonisms (negative Loewe Volume). […] This model defines additivity as a non-synergistic combination interaction where the combination dose matrix surface should be indistinguishable from either drug crossed with itself. The calculation for Loewe additivity is:

[2] = tested on: DOHH2; assay: Compound 1 with dexamethasone, CellTiter-Glo viability 72 h, combination index; type: cell-based; conditions: DOHH2
Method: The effects of Compound 1 with dexamethasone were examined in a panel of cell lines. Cells were cultured and assayed as follows. Compound 1 was serially diluted with cell culture medium and various DMSO concentrations. The top concentration of Compound 1 exposed to cells was 3 uM for cell lines other than WSU-NHL and DOHH2. For WSU-NHL and DOHH2 cell lines, the top concentration of Compound 1 exposed to the cells was 0.3 uM. Dexamethasone was serially diluted in culture media and phosphate buffered saline (PBS). The top concentration of dexamethasone used on cells was 3 uM. Cells were at least 73% viable and were counted and diluted for plating at a density of about 92,000 cell/mL, 130 uL cells per well in 96 well plates for SUDHL6, Karpas 422, SUDHL4, WSU-NHL, RL, and DOHH2 cell lines. The SUDHL10 cell line was plated at a density of about 46,000 cells/mL, 130 uL cells per well in 96 well plates.
Various concentrations of Compound 1 and various combinations of dexamethasone were added to various wells of cells. Single agents (Compound 1 or dexamethasone alone) were also added to some wells of cells. Cells were incubated with compounds for 72 hours. To assay for effects of the compounds on cell viability, a CellTiter-Glo® luminescent cell viability assay (commercially available) was used. To each plate of cells, 100 uL CellTiter-Glo reagent was added, incubated, and luminescence quantified using a […].
The results for cell line DOHH2 are depicted in FIG. 11 and Table 11. […] Table 11 depicts combination index (CI) values for different combinations of dexamethasone/Compound 1 concentrations.

[3] = tested on: WSU-NHL; assay: Combination study, ATPLite 72 h, dose matrix (Synergy Score, CI50)

C[C@H](Nc1ncnc2[nH]cnc12)c1cc2cccc(Cl)c2c(=O)n1-c1ccccc1 [Compound 1, (S)-3-(1-((9H-purin-6-yl)amino)ethyl)-8-chloro-2-phenylisoquinolin-1(2H)-one]
CI50 growth inhibition ([1]; combination with Dexamethasone): S (S=0.01 to <0.5)
CI50 inhibition ([1]; combination with Dexamethasone): S (S=0.01 to <0.5)
Synergy Score growth inhibition ([1]; combination with Dexamethasone): A3 (A3=>3)
Synergy Score inhibition ([1]; combination with Dexamethasone): A2 (A2=1 to <3)
CI50 growth inhibition ([1]; combination with LEE011): U (U=0.7 to <1)
CI50 inhibition ([1]; combination with LEE011): W (W=≥1)
Synergy Score growth inhibition ([1]; combination with LEE011): A2 (A2=1 to <3)
Synergy Score inhibition ([1]; combination with LEE011): A1 (A1=0.0001 to <1)
CI50 growth inhibition ([1]; combination with PCI-32765): W (W=≥1)
Synergy Score growth inhibition ([1]; combination with PCI-32765): A2 (A2=1 to <3)
Synergy Score inhibition ([1]; combination with PCI-32765): A1 (A1=0.0001 to <1)
CI50 growth inhibition ([1]; combination with PD-0332991): T (T=0.5 to <0.7)
CI50 inhibition ([1]; combination with PD-0332991): S (S=0.01 to <0.5)
Synergy Score growth inhibition ([1]; combination with PD-0332991): A2 (A2=1 to <3)
Synergy Score inhibition ([1]; combination with PD-0332991): A2 (A2=1 to <3)
combination index (CI) ([2]; Compound 1 0.137174 nM + Dexamethasone 1.371742 nM): E (E = >1)
combination index (CI) ([2]; Compound 1 0.137174 nM + Dexamethasone 4.115226 nM): E (E = >1)
combination index (CI) ([2]; Compound 1 0.137174 nM + Dexamethasone 12.34568 nM): E (E = >1)
combination index (CI) ([2]; Compound 1 0.137174 nM + Dexamethasone 37.03704 nM): E (E = >1)
combination index (CI) ([2]; Compound 1 0.137174 nM + Dexamethasone 111.1111 nM): C (C = 0.5 to <0.7)
combination index (CI) ([2]; Compound 1 0.137174 nM + Dexamethasone 333.3333 nM): A (A = 0.0001 to <0.3)
combination index (CI) ([2]; Compound 1 0.137174 nM + Dexamethasone 1000 nM): A (A = 0.0001 to <0.3)
combination index (CI) ([2]; Compound 1 0.137174 nM + Dexamethasone 3000 nM): A (A = 0.0001 to <0.3)
combination index (CI) ([2]; Compound 1 0.411523 nM + Dexamethasone 1.371742 nM): E (E = >1)
combination index (CI) ([2]; Compound 1 0.411523 nM + Dexamethasone 4.115226 nM): E (E = >1)
combination index (CI) ([2]; Compound 1 0.411523 nM + Dexamethasone 12.34568 nM): E (E = >1)
combination index (CI) ([2]; Compound 1 0.411523 nM + Dexamethasone 37.03704 nM): E (E = >1)
combination index (CI) ([2]; Compound 1 0.411523 nM + Dexamethasone 111.1111 nM): C (C = 0.5 to <0.7)
combination index (CI) ([2]; Compound 1 0.411523 nM + Dexamethasone 333.3333 nM): B (B = 0.3 to <0.5)
combination index (CI) ([2]; Compound 1 0.411523 nM + Dexamethasone 1000 nM): A (A = 0.0001 to <0.3)
combination index (CI) ([2]; Compound 1 0.411523 nM + Dexamethasone 3000 nM): A (A = 0.0001 to <0.3)
combination index (CI) ([2]; Compound 1 1.234568 nM + Dexamethasone 1.371742 nM): E (E = >1)
combination index (CI) ([2]; Compound 1 1.234568 nM + Dexamethasone 4.115226 nM): E (E = >1)
combination index (CI) ([2]; Compound 1 1.234568 nM + Dexamethasone 12.34568 nM): E (E = >1)
combination index (CI) ([2]; Compound 1 1.234568 nM + Dexamethasone 37.03704 nM): E (E = >1)
combination index (CI) ([2]; Compound 1 1.234568 nM + Dexamethasone 111.1111 nM): B (B = 0.3 to <0.5)
combination index (CI) ([2]; Compound 1 1.234568 nM + Dexamethasone 333.3333 nM): A (A = 0.0001 to <0.3)
combination index (CI) ([2]; Compound 1 1.234568 nM + Dexamethasone 1000 nM): A (A = 0.0001 to <0.3)
combination index (CI) ([2]; Compound 1 1.234568 nM + Dexamethasone 3000 nM): A (A = 0.0001 to <0.3)
combination index (CI) ([2]; Compound 1 3.703704 nM + Dexamethasone 1.371742 nM): B (B = 0.3 to <0.5)
combination index (CI) ([2]; Compound 1 3.703704 nM + Dexamethasone 4.115226 nM): E (E = >1)
combination index (CI) ([2]; Compound 1 3.703704 nM + Dexamethasone 12.34568 nM): E (E = >1)
combination index (CI) ([2]; Compound 1 3.703704 nM + Dexamethasone 37.03704 nM): D (D = 0.7 to <1)
combination index (CI) ([2]; Compound 1 3.703704 nM + Dexamethasone 111.1111 nM): A (A = 0.0001 to <0.3)
combination index (CI) ([2]; Compound 1 3.703704 nM + Dexamethasone 333.3333 nM): A (A = 0.0001 to <0.3)
combination index (CI) ([2]; Compound 1 3.703704 nM + Dexamethasone 1000 nM): A (A = 0.0001 to <0.3)
combination index (CI) ([2]; Compound 1 3.703704 nM + Dexamethasone 3000 nM): A (A = 0.0001 to <0.3)
combination index (CI) ([2]; Compound 1 11.11111 nM + Dexamethasone 1.371742 nM): B (B = 0.3 to <0.5)
combination index (CI) ([2]; Compound 1 11.11111 nM + Dexamethasone 4.115226 nM): E (E = >1)
combination index (CI) ([2]; Compound 1 11.11111 nM + Dexamethasone 12.34568 nM): E (E = >1)
combination index (CI) ([2]; Compound 1 11.11111 nM + Dexamethasone 37.03704 nM): C (C = 0.5 to <0.7)
combination index (CI) ([2]; Compound 1 11.11111 nM + Dexamethasone 111.1111 nM): A (A = 0.0001 to <0.3)
combination index (CI) ([2]; Compound 1 11.11111 nM + Dexamethasone 333.3333 nM): A (A = 0.0001 to <0.3)
combination index (CI) ([2]; Compound 1 11.11111 nM + Dexamethasone 1000 nM): A (A = 0.0001 to <0.3)
combination index (CI) ([2]; Compound 1 11.11111 nM + Dexamethasone 3000 nM): A (A = 0.0001 to <0.3)
combination index (CI) ([2]; Compound 1 33.33333 nM + Dexamethasone 1.371742 nM): B (B = 0.3 to <0.5)
combination index (CI) ([2]; Compound 1 33.33333 nM + Dexamethasone 4.115226 nM): B (B = 0.3 to <0.5)
combination index (CI) ([2]; Compound 1 33.33333 nM + Dexamethasone 12.34568 nM): D (D = 0.7 to <1)
combination index (CI) ([2]; Compound 1 33.33333 nM + Dexamethasone 37.03704 nM): A (A = 0.0001 to <0.3)
combination index (CI) ([2]; Compound 1 33.33333 nM + Dexamethasone 111.1111 nM): A (A = 0.0001 to <0.3)
combination index (CI) ([2]; Compound 1 33.33333 nM + Dexamethasone 333.3333 nM): A (A = 0.0001 to <0.3)
combination index (CI) ([2]; Compound 1 33.33333 nM + Dexamethasone 1000 nM): A (A = 0.0001 to <0.3)
combination index (CI) ([2]; Compound 1 33.33333 nM + Dexamethasone 3000 nM): A (A = 0.0001 to <0.3)
combination index (CI) ([2]; Compound 1 100 nM + Dexamethasone 1.371742 nM): B (B = 0.3 to <0.5)
combination index (CI) ([2]; Compound 1 100 nM + Dexamethasone 4.115226 nM): A (A = 0.0001 to <0.3)
combination index (CI) ([2]; Compound 1 100 nM + Dexamethasone 12.34568 nM): C (C = 0.5 to <0.7)
combination index (CI) ([2]; Compound 1 100 nM + Dexamethasone 37.03704 nM): A (A = 0.0001 to <0.3)
combination index (CI) ([2]; Compound 1 100 nM + Dexamethasone 111.1111 nM): A (A = 0.0001 to <0.3)
combination index (CI) ([2]; Compound 1 100 nM + Dexamethasone 333.3333 nM): A (A = 0.0001 to <0.3)
combination index (CI) ([2]; Compound 1 100 nM + Dexamethasone 1000 nM): A (A = 0.0001 to <0.3)
combination index (CI) ([2]; Compound 1 100 nM + Dexamethasone 3000 nM): A (A = 0.0001 to <0.3)
combination index (CI) ([2]; Compound 1 300 nM + Dexamethasone 1.371742 nM): B (B = 0.3 to <0.5)
combination index (CI) ([2]; Compound 1 300 nM + Dexamethasone 4.115226 nM): B (B = 0.3 to <0.5)
combination index (CI) ([2]; Compound 1 300 nM + Dexamethasone 12.34568 nM): A (A = 0.0001 to <0.3)
combination index (CI) ([2]; Compound 1 300 nM + Dexamethasone 37.03704 nM): A (A = 0.0001 to <0.3)
combination index (CI) ([2]; Compound 1 300 nM + Dexamethasone 111.1111 nM): A (A = 0.0001 to <0.3)
combination index (CI) ([2]; Compound 1 300 nM + Dexamethasone 333.3333 nM): A (A = 0.0001 to <0.3)
combination index (CI) ([2]; Compound 1 300 nM + Dexamethasone 1000 nM): A (A = 0.0001 to <0.3)
combination index (CI) ([2]; Compound 1 300 nM + Dexamethasone 3000 nM): A (A = 0.0001 to <0.3)
CI50 growth inhibition ([3]; combination with Dexamethasone): S (S=0.01 to <0.5)
CI50 inhibition ([3]; combination with Dexamethasone): S (S=0.01 to <0.5)
Synergy Score growth inhibition ([3]; combination with Dexamethasone): A3 (A3=>3)
Synergy Score inhibition ([3]; combination with Dexamethasone): A3 (A3=>3)
CI50 growth inhibition ([3]; combination with LEE011): S (S=0.01 to <0.5)
CI50 inhibition ([3]; combination with LEE011): S (S=0.01 to <0.5)
Synergy Score growth inhibition ([3]; combination with LEE011): A2 (A2=1 to <3)

— patent US20240325398A1, “COMBINATION THERAPIES” (Infinity Pharmaceuticals, Inc., priority 2014, published 2024)
